Target: THP4.1 biosensor (Salmonella typhimurium, UniProt Q8ZR43)
Assay: Dose response and ligand response of the THP4.1 biosensor
Format: cell-based
Settings: pThpR reporter

THP4.1 biosensor, sequence (Q8ZR43 whole entry): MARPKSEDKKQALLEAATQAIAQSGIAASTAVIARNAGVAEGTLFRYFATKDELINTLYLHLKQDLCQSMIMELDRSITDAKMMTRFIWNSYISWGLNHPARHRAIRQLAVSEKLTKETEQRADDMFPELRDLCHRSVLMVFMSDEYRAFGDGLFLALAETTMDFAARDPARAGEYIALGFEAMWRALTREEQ

## COc1ccc(C[C@@H]2NCCc3cc(OC)c(O)cc32)cc1O [norreticuline]
  responsiveness of THP4.1: somewhat responsive
